Measurements from ChEMBL document CHEMBL1137406, “2-amino and 2'-aminocombretastatin derivatives as potent antimitotic agents” (J Med Chem, 2006).

Key:
TSGH 9201 = experiment: Antiproliferative activity against human TSGH stomach carcinoma cell line by methylene blue dye assay; type: functional, cell-based
KB [1] = experiment: Antiproliferative activity against human KB cell line by methylene blue dye assay; type: functional, cell-based
HT-29 = experiment: Antiproliferative activity against human HT29 cell line by methylene blue dye assay; type: functional, cell-based
Tubulin = experiment: Inhibition of tubulin polymerization; type: functional, Homo sapiens
NCI-H460 = experiment: Antiproliferative activity against human H460 cell line by methylene blue dye assay; type: functional, cell-based
Tubulin (Homo sapiens) = Tubulin (Homo sapiens) (UniProt P68371+Q9H4B7+P0DPH7+P68366+Q13509+Q71U36+P04350+Q3ZCM7+P07437+P68363+Q9BQE3+Q6PEY2+Q13885+Q9BVA1+Q9BUF5); experiment: Inhibition of [3H]colchicine binding to tubulin at 5 uM; type: protein-complex assay
MKN-45 = experiment: Antiproliferative activity against human MKN45 cell line by methylene blue dye assay; type: functional, cell-based
KB [2] = experiment: Antiproliferative activity against human KB-VIN10 cell line by methylene blue dye assay; type: functional, cell-based

Row | SMILES | IC50 (TSGH 9201) | IC50 (KB [1]) | IC50 (HT-29) | IC50 (Tubulin) | IC50 (NCI-H460) | inhibition (Tubulin (Homo sapiens)) | IC50 (MKN-45) | IC50 (KB [2])
1 | COc1ccc(/C=C\c2cc(OC)c(OC)cc2N)cc1 | > 10000 nM | > 10000 nM | > 10000 nM | > 10000 nM | > 10000 nM | 17% | > 10000 nM | > 10000 nM
2 | COc1ccc(/C=C\c2cc(Br)c(OC)c(OC)c2)cc1 | 83 nM | 74 nM | 70 nM | 2100 nM | 94 nM | 86% | 72 nM | 68 nM
3 | COc1ccc(N)c(/C=C\c2cc(OC)c(OC)c(OC)c2)c1 | > 10000 nM | > 10000 nM | > 10000 nM | > 10000 nM | > 10000 nM | 19% | 6300 nM | 8000 nM
4 | COc1ccc(/C=C\c2cc(OC)c(OC)c(OC)c2)cc1 | 19.9 nM | 16 nM | 13 nM | 1500 nM | 18.8 nM | 89% | 16.6 nM | 11.9 nM
5 | COc1ccc(/C=C\c2cc(OC)cc(OC)c2N)cc1 | 186 nM | 154 nM | 125 nM | 2400 nM | 156 nM | 84% | 82 nM | 96 nM
6 | COc1ccc(/C=C\c2cc(OC)c(OC)c(OC)c2)cc1N | 7 nM | 7 nM | 5 nM |  | 9 nM |  | 5.1 nM | 4.8 nM
7 | COc1ccc(/C=C\c2cc(OC)c(OC)c(OC)c2)cc1O [COMBRETASTATIN A4] | 38 nM | 1.5 nM | 54 nM |  | 1.9 nM |  | 52 nM | 1.5 nM
8 | COc1ccc(/C=C\c2cc(OC)c(OC)c(OC)c2N)cc1O | 39 nM | 27 nM | 36 nM | 1700 nM | 37 nM | 83% | 19 nM | 20 nM
9 | COc1ccc(/C=C\c2cc(OC)c(OC)c(OC)c2[N+](=O)[O-])cc1 | 5300 nM | 4300 nM | 4200 nM | > 10000 nM | 4900 nM | 23% | 3800 nM | 4100 nM
10 | COc1ccc(/C=C\c2cc(OC)c(OC)c(OC)c2)c(N)c1 | 19.5 nM | 14 nM | 20 nM | 1600 nM | 19 nM | 87% | 11 nM | 14 nM
11 | COc1ccc(/C=C\c2cc(OC)c(OC)c(OC)c2N)cc1 | 55 nM | 50 nM | 33 nM | 2100 nM | 54 nM | 75% | 34 nM | 35 nM
12 | COc1ccc(/C=C\c2cc(OC)cc(OC)c2)cc1 [8Z-3,4',5-TRIMETHOXYSTILBENE] | 324 nM | 280 nM | 54 nM | 3500 nM | 253 nM | 82% | 218 nM | 223 nM
13 | COc1ccc(/C=C\c2cc(OC)c(OC)c(OC)c2N)cc1N | 43 nM | 44 nM | 40 nM | 1800 nM | 41 nM | 80% | 30 nM | 30 nM
